Converted amounts (≈) assume the structure as drawn.
Experiments:
[1] = system: Methicillin-resistant S. aureus ATCC 43300; test: microbe, parasite or virus in culture; settings: ATCC 43300, 24 h
Summary of the method: (§1)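 Growth inhibition measured by broth microdilution (MHB, 37 °C, 24 h incubation). MIC defined visually as the lowest inhibitory concentration.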

[2] = system: Multi-drug-resistant S. pneumoniae ATCC 700677; test: microbe, parasite or virus in culture; settings: ATCC 700677
Summary of the method: as §1

[3] = system: Vancomycin-intermediate S. aureus NRS1; test: microbe, parasite or virus in culture; settings: Vancomycin-intermediate NRS1
Summary of the method: as §1

[4] = system: Vancomycin-resistant (VanA) Enterococcus faecium ATCC 51559; test: microbe, parasite or virus in culture; settings: ATCC 51559
Summary of the method: as §1

[5] = Cytotoxicity MTT assay; assay type: cell-based, human; settings: human
[6] = Cytotoxicity MTT assay; assay type: cell-based, human; settings: human; remark: listed apart in the source
Summary of the method: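 HepG2 and HEK293 cells, 1.5 × 10^4 per well in DMEM with 1% FBS, were allowed to attach for 24 h, then exposed 24 h at 37 °C to compounds at 100 µM to 0.046 µM in threefold steps. MTT (0.4 mg mL^−1) was added for 2 h, and formazan in DMSO was read at 570 nm. Viability is given as percent of control, corrected for a positive control.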

[7] = system: Bacillus subtilis ATCC 6633; test: microbe, parasite or virus in culture; assay type: cell-based
Method: All compounds were dissolved in H2O. Bacillus subtilis ATCC® 6633™ NRS-231 was cultured in MHB at 37 °C for 48 h. A sample of each culture was then diluted 40-fold in fresh MHB and incubated at 37 °C for 18 h. Compounds were added to each row of 96-well NBS plates (NBS, Corning 3641), in duplicate. The tripeptide N,N΄-diacetyl-L-Lys-D-Ala-D-Ala was serially diluted twofold across the compound-containing wells from 6400 to 3 µg mL^−1. To this the resultant mid-log phase cultures were diluted to the final concentration of 5 × 10^5 CFU mL^−1, then added to wells of the compound-containing plates. All the plates were covered and incubated at 37 °C for 24 h.

[8] = Critical micelle concentration assay; assay type: physicochemical; settings: 0.2 M NaCl, DPH
Method: CMCs were determined as previously described[46] with a higher throughput modification. Briefly, a cascade dilution of each antibiotic was performed in a low binding polypropylene V-bottom shaped 96-well plates in the presence of 0.2 M NaCl solution across 12 concentrations ranging from 1000 to 0.1 μM, except the control melittin (100 to 0.01 μM). An identical cascade dilution was performed for the neutral detergent Triton X-100 and the anionic detergent sodium dodecyl sulphate (SDS) starting from 0.1% down to 0.00001% (vol:vol for Triton X-100 and wt:vol for SDS). An aliquot of […] (DPH) in DMSO was added in each well to yield the final DPH concentration of 5 μM. The reaction mixtures were mixed for 30 s and transferred in horizontal triplicate (25 μL per well) into a black falcon 384-well plate. The 384-well plate was then sealed, wrapped up in aluminium foil and incubated for 30 min at room temperature. The fluorescence intensity was monitored in real time using a BMG Labtech PolarStar Omega multimode reader fitted with 360-10 and 430-10 excitation and emission filters respectively, at an excitation wavelength of 360 nm and an emission wavelength of 430 nm.

[9] = 37 °C, 20 µM
[10] = in vitro; settings: human, 50% human plasma (pooled, sodium heparin) in PBS, pH 7.4

## CN[C@H](CC(C)C)C(=O)N[C@H]1C(=O)N[C@@H](CC(N)=O)C(=O)N[C@H]2C(=O)N[C@H]3C(=O)N[C@H](C(=O)N[C@H](C(=O)NCCCC[C@H](NC(=O)[C@H](CCCCN)NC(=O)[C@H](CCCCN)NC(=O)[C@H](CCCCNC(=O)c4ccc(Oc5ccccc5)cc4)NC(=O)c4ccc(Oc5ccccc5)cc4)C(=O)O)c4cc(O)cc(O)c4-c4cc3ccc4O)[C@H](O)c3ccc(c(Cl)c3)Oc3cc2cc(c3O[C@@H]2O[C@H](CO)[C@@H](O)[C@H](O)[C@H]2O[C@H]2C[C@](C)(N)[C@H](O)[C@H](C)O2)Oc2ccc(cc2Cl)[C@H]1O [Compound 23, POP2K-KK-K(Vancomycin)-OH]
[1]
  MIC MRSA: <0.003 µg/mL
[2]
  MIC MDR S.P.: <0.003 µg/mL
[3]
  MIC VISA: 0.5 µg/mL (≈ 212 nM)
[4]
  MIC VRE: 4 µg/mL (≈ 1700 nM)
[5]
  CC50 at 24 h: 41 µM
[6]
  CC50 at 24 h: 47 µM
[7]; ATCC 6633, 48 h
  Ac2Kaa concentration required to neutralise MIC activity: 200 µg/mL
  MIC: ≤ 0.004 µg/mL
[7]; [ligand]/[antibiotic], B. subtilis ATCC 6633, 24 h
  Molar excess of Ac2Kaa ligand required to antagonise antibacterial activity: 15,102
[8]
  critical micelle concentration (CMC): exceed 100 µM
[9]
  % compound remaining after incubation in 50% human plasma, 0h: 100%
[10]
  remaining at 1 h, 20 µM: 107%
  remaining at 6 h, 20 µM: 103%
  remaining at 24 h, 20 µM: 99%

Source: publication PMC5750218, “Protein-inspired antibiotics active against vancomycin- and daptomycin-resistant bacteria” (Nature Communications, 2018)
